Data reported in PubChem BioAssay (NCI).
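In this assay, cells in 96-well plates receive the compound at five concentrations for 48 hours. Endpoints are linearly interpolated between the surrounding concentrations. At the TGI there is no net growth.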

Experiments:
Test in all cases: inhibition of tumour cell growth, NCI panel, 48 h
786-0 renal = test system: 786-0 renal
A549 NSCLC = test system: A549 NSCLC
ACHN renal = test system: ACHN renal
CAKI-1 renal = test system: CAKI-1 renal
CCRF-CEM leukemia = test system: CCRF-CEM leukemia
DLD-1 colon = test system: DLD-1 colon
DMS 273 small cell lung = test system: DMS 273 small cell lung
EKVX NSCLC = test system: EKVX NSCLC
HCT-116 colon = test system: HCT-116 colon
HL-60(TB) leukemia = test system: HL-60(TB) leukemia
HOP-92 NSCLC = test system: HOP-92 NSCLC
HT29 colon = test system: HT29 colon
IGROV1 ovarian = test system: IGROV1 ovarian
K-562 leukemia = test system: K-562 leukemia
KM12 colon = test system: KM12 colon
KM20L2 colon = test system: KM20L2 colon
LOX IMVI melanoma = test system: LOX IMVI melanoma
LXFL 529 NSCLC = test system: LXFL 529 NSCLC
M14 melanoma = test system: M14 melanoma
M19-MEL melanoma = test system: M19-MEL melanoma
MOLT-4 leukemia = test system: MOLT-4 leukemia
NCI-H226 lung = test system: NCI-H226 lung
NCI-H522 lung = test system: NCI-H522 lung
OVCAR-3 ovarian = test system: OVCAR-3 ovarian
RPMI-8226 leukemia = test system: RPMI-8226 leukemia
SF-268 CNS = test system: SF-268 CNS
SF-295 CNS = test system: SF-295 CNS
SF-539 CNS = test system: SF-539 CNS
SK-MEL-28 melanoma = test system: SK-MEL-28 melanoma
SK-MEL-5 melanoma = test system: SK-MEL-5 melanoma
SK-OV-3 ovarian = test system: SK-OV-3 ovarian
SNB-75 CNS = test system: SNB-75 CNS
SR leukemia = test system: SR leukemia
SW-620 colon = test system: SW-620 colon
TK-10 renal = test system: TK-10 renal
UACC-257 melanoma = test system: UACC-257 melanoma
UACC-62 melanoma = test system: UACC-62 melanoma
COLO 205 colon = test system: COLO 205 colon
DMS 114 small cell lung = test system: DMS 114 small cell lung
HCC-2998 colon = test system: HCC-2998 colon
HCT-15 colon = test system: HCT-15 colon
HOP-62 NSCLC = test system: HOP-62 NSCLC
OVCAR-8 ovarian = test system: OVCAR-8 ovarian
RXF-631 renal = test system: RXF-631 renal
SNB-19 CNS = test system: SNB-19 CNS
U251 CNS = test system: U251 CNS
UO-31 renal = test system: UO-31 renal

| Compound | TGI (786-0 renal) | TGI (A549 NSCLC) | TGI (ACHN renal) | TGI (CCRF-CEM leukemia) | TGI (EKVX NSCLC) | TGI (HL-60(TB) leukemia) | TGI (HT29 colon) | TGI (IGROV1 ovarian) | TGI (K-562 leukemia) | TGI (KM20L2 colon) | TGI (LXFL 529 NSCLC) | TGI (M14 melanoma) | TGI (M19-MEL melanoma) | TGI (MOLT-4 leukemia) | TGI (NCI-H522 lung) | TGI (OVCAR-3 ovarian) | TGI (RPMI-8226 leukemia) | TGI (SF-268 CNS) | TGI (SF-295 CNS) | TGI (SK-MEL-28 melanoma) | other results |
| --- | --- | --- | --- | --- | --- | --- | --- | --- | --- | --- | --- | --- | --- | --- | --- | --- | --- | --- | --- | --- | --- |
| N#CC(c1ccc(Cl)cc1)c1c(O)nc2ccc(=N)cc-2n1O (configuration not stated) | > 100 µM | > 100 µM | > 100 µM | > 100 µM | > 100 µM | > 100 µM | > 100 µM | > 100 µM | > 100 µM | > 100 µM | > 100 µM | > 100 µM | > 100 µM | > 100 µM | > 100 µM | > 100 µM | > 100 µM | > 100 µM | > 100 µM | > 100 µM | TGI (CAKI-1 renal): > 100 µM; TGI (DLD-1 colon): > 100 µM; TGI (DMS 273 small cell lung): > 100 µM; TGI (HCT-116 colon): > 100 µM; TGI (HOP-92 NSCLC): > 100 µM; TGI (KM12 colon): > 100 µM; TGI (LOX IMVI melanoma): > 100 µM; TGI (NCI-H226 lung): > 100 µM; TGI (SF-539 CNS): > 100 µM; TGI (SK-MEL-5 melanoma): > 100 µM; TGI (SK-OV-3 ovarian): > 100 µM; TGI (SNB-75 CNS): > 100 µM; TGI (SR leukemia): > 100 µM; TGI (SW-620 colon): > 100 µM; TGI (TK-10 renal): > 100 µM; TGI (UACC-257 melanoma): > 100 µM; TGI (UACC-62 melanoma): > 100 µM |
| CC1=C(C)C(=O)C2=C(OCCCO2)C1=O | 33.3 µM | > 100 µM | 32.4 µM | 8.11 µM | 31 µM | 19 µM | 46.3 µM | 33.3 µM | 54 µM | > 100 µM | 31.9 µM | 30.7 µM | 33.3 µM | 5.33 µM | 33.1 µM | 32 µM | 36.1 µM | 33.2 µM | 70.9 µM | > 100 µM | TGI (COLO 205 colon): > 100 µM; TGI (DMS 114 small cell lung): 33.5 µM; TGI (HCC-2998 colon): > 100 µM; TGI (HCT-15 colon): > 100 µM; TGI (HOP-62 NSCLC): > 100 µM; TGI (OVCAR-8 ovarian): 32.9 µM; TGI (RXF-631 renal): 31.5 µM; TGI (SK-OV-3 ovarian): > 100 µM; TGI (SNB-19 CNS): > 100 µM; TGI (SNB-75 CNS): 51.7 µM; TGI (SR leukemia): 44.9 µM; TGI (SW-620 colon): 31.2 µM; TGI (U251 CNS): > 100 µM; TGI (UACC-62 melanoma): 32.7 µM; TGI (UO-31 renal): 30.1 µM |
